Laboratory results taken from ChEMBL document CHEMBL1201862, “PubChem BioAssay data set” (2004).
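Five concentrations, 48 hours, 96-well plates. GI50: concentration for 50% inhibition of growth.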 Activity calls are given as the source filed them. Cut-off read from the data, not from the text of the source: active = GI50 up to about 1.1 µM and inactive = higher.

Tests used:
Assay in all cases: DTP human tumour cell line panel, 48 h
LXFL 529 = system: LXFL 529
SNB-78 = system: SNB-78
KM-20L2 = system: KM-20L2
DMS-273 = system: DMS-273
M19-MEL = system: M19-MEL
XF498 = system: XF498
RXF 631 = system: RXF 631
MDA-N = system: MDA-N
BT-549 = system: BT-549

Measured: GI50

N/N=c1\c2ccccc2c2ccc3c4ccccc4/c(=N\N)c3c12
inactive: LXFL 529 > 100 µM | SNB-78 > 100 µM | KM-20L2 > 100 µM | DMS-273 > 100 µM | M19-MEL > 100 µM

CO/C(=N\N=C\c1ccc(Cl)cc1)c1ccncc1
inactive: LXFL 529 > 100 µM | SNB-78 > 100 µM | KM-20L2 > 100 µM | XF498 > 100 µM | DMS-273 > 100 µM

CC1CCN(c2cc(-c3cc4ccccc4o3)oc(=O)c2C#N)CC1
inactive: LXFL 529 > 100 µM | SNB-78 > 10 µM | KM-20L2 > 100 µM | XF498 > 100 µM | DMS-273 > 100 µM

O=c1n(Cc2ccccc2)c2ccccc2n1CC1CS1 (stereo not drawn)
inactive: LXFL 529 > 100 µM | KM-20L2 > 100 µM | XF498 > 100 µM | DMS-273 > 100 µM | M19-MEL > 100 µM

CC(=O)Nc1ccc(C(=O)N2N=C(C)/C(=C/c3cccc(O)c3)C2=O)cc1
inactive: XF498 > 100 µM | DMS-273 > 100 µM | M19-MEL > 100 µM

COc1cc2c3cc1Oc1c(O)c(OC)cc4c1C(Cc1ccc(O)c(c1)Oc1ccc(cc1)CC3N(C)CC2)N(C)CC4 (stereo not drawn)
inactive: LXFL 529 4.92 µM | SNB-78 24.9 µM | KM-20L2 5.56 µM | XF498 19.4 µM | DMS-273 13 µM | M19-MEL 21.7 µM

COCOc1ccc(OC)cc1
inactive: SNB-78 > 100 µM | KM-20L2 > 100 µM | XF498 > 100 µM | DMS-273 > 100 µM | M19-MEL > 100 µM

CCc1cccc(CC)c1NC1=CC(=O)C(=O)c2ccccc21
inactive: LXFL 529 19.4 µM | SNB-78 26.3 µM | KM-20L2 19.8 µM | RXF 631 13.8 µM | DMS-273 19.2 µM | M19-MEL 4.97 µM

Cc1ccc2c(c1-c1ccccc1)C(=O)OC2
inactive: LXFL 529 > 100 µM | SNB-78 37 µM | KM-20L2 20.4 µM | RXF 631 > 100 µM | DMS-273 > 100 µM | M19-MEL > 100 µM

CC(C)(C)c1cc(Cc2ccc(S(C)(=O)=O)cc2)c(O)c(C(C)(C)C)c1
inactive: LXFL 529 15.5 µM | SNB-78 16.3 µM | KM-20L2 15.7 µM | XF498 15.2 µM | DMS-273 14.3 µM | M19-MEL 17.1 µM

COc1cc2c(cc1OC)C1=C(C=O)c3ccc(OC)c(OC)c3C(O)N1CC2 (stereo not drawn)
inactive: MDA-N 31.5 µM | BT-549 22.2 µM

CC1(C)OCC=CCO1
inactive: MDA-N > 100 µM | BT-549 > 100 µM

O=C1OCc2c1cc1cc3c(cc1c2-c1ccc2c(c1)OCO2)OCO3.O=C1OCc2cc3cc4c(cc3c(-c3ccc5c(c3)OCO5)c21)OCO4
inactive: MDA-N 1.41 µM | BT-549 19 µM

Cc1cccc(NC(=O)C(=O)C(C(=O)c2ccccc2F)C2OC(=O)c3ccccc32)c1Cl (stereo not drawn)
inactive: LXFL 529 24.3 µM | SNB-78 32.6 µM | KM-20L2 29.6 µM | XF498 19.7 µM | DMS-273 24.7 µM | M19-MEL 22.4 µM

O=[N+]([O-])c1cc(C(F)(F)F)cc2c1SC1=Nc3ccccc3CN12
inactive: SNB-78 > 100 µM | KM-20L2 > 100 µM | XF498 > 100 µM | DMS-273 > 100 µM | M19-MEL > 100 µM

O=C1NCCCC12CCCNC2=O
inactive: LXFL 529 > 100 µM | KM-20L2 > 100 µM | XF498 > 100 µM | DMS-273 > 100 µM | M19-MEL > 100 µM

CCOC(=O)C(C(=O)OCC)c1ccc([N+](=O)[O-])o1
inactive: LXFL 529 3.6 µM | SNB-78 14 µM | KM-20L2 19.1 µM | XF498 17.1 µM | DMS-273 18 µM | M19-MEL 17.5 µM

N=C(N)SCCN1CCCCC1
inactive: MDA-N 30.2 µM | BT-549 25.1 µM

Cc1ccc(N2C(=O)N(c3ccc(C)cc3)C3(SC=NN3C)C2=O)cc1 (stereo not drawn)
inactive: LXFL 529 64.1 µM | SNB-78 > 100 µM | KM-20L2 44 µM | M19-MEL 72.6 µM

CC(=O)Nc1cc2c3c(c1)CCCN3CCC2
inactive: MDA-N > 100 µM | BT-549 > 100 µM

COC(=O)C1=CC2OC1(C)CCC2=O (stereo not drawn)
inactive: LXFL 529 > 100 µM | KM-20L2 > 100 µM | XF498 > 100 µM | DMS-273 > 100 µM

CC/C=C\C/C=C\C/C=C\CCCCCCCC(=O)OCC
inactive: LXFL 529 > 100 µM | KM-20L2 > 100 µM | XF498 30.9 µM | M19-MEL > 100 µM

CN1C=C(C(N)=O)Cc2ccsc21
inactive: LXFL 529 > 100 µM | SNB-78 > 100 µM | KM-20L2 > 100 µM | DMS-273 > 100 µM | M19-MEL > 100 µM

c1ccc(C2N=C(c3ccccn3)C(c3ccccn3)=NC2c2ccccc2)cc1 (stereo not drawn)
inactive: LXFL 529 > 100 µM | SNB-78 > 100 µM | KM-20L2 > 100 µM | XF498 > 100 µM | DMS-273 > 100 µM | M19-MEL > 100 µM

CCOC(=O)Nc1ccc(S(=O)(=O)OC)cc1.CCOC(=O)Nc1ccc(S(=O)(=O)OC)cc1.Cc1cn(C2CC(O)C(CO)O2)c(=O)[nH]c1=O
inactive: LXFL 529 > 100 µM | SNB-78 > 100 µM | KM-20L2 > 100 µM | RXF 631 > 100 µM | DMS-273 > 100 µM | M19-MEL 49.8 µM

CC(C)(C1=NC(C(C)(C)C)CO1)C1=N[C@@H](C(C)(C)C)CO1 (stereo partly drawn)
inactive: LXFL 529 > 100 µM | KM-20L2 > 100 µM | XF498 > 100 µM | DMS-273 > 100 µM | M19-MEL > 100 µM

N/C(=N\O)N/N=C/c1ccc2c(c1)OCCO2
inactive: SNB-78 57.7 µM | KM-20L2 4.13 µM | XF498 8.79 µM | DMS-273 16.6 µM | M19-MEL > 33 µM
